Experimental data as given in US12545639B2, “3-substituted phenylamidine compounds, preparation and use thereof” (PI INDUSTRIES LTD., priority 2019, dated 2026).

Columns and labels:
Colletotrichum capsici = Colletotrichum capsici (anthracnose) in vitro test, radial growth on potato dextrose agar; format: cell-based; settings: Colletotrichum truncatum, 168 h; 300 ppm in potato dextrose agar; 25° C., 60% relative humidity, seven days; read-out: control compared to the untreated check (radial growth)
Alternaria solani = Alternaria solani (early blight of tomato/potato) in vitro test, radial growth on potato dextrose agar; format: cell-based; settings: 168 h, 300 ppm in potato dextrose agar, 25° C., 60% relative humidity, seven days, read-out: control compared to the untreated check (radial growth)
Phakopsora pachyrhizi = Phakopsora pachyrhizi test in soybean, preventive, in vivo on plants; settings: in Glycine max, read-out: Efficacy (% control), disease severity compared to the untreated check
Pyricularia oryzae = test: microbe, parasite or virus in culture; format: cell-based; settings: 168 h, read-out: control compared to the untreated check (radial growth)
[1] = tested on: Septoria lycopersici/Corynespora cassicola (CORYCA); test: Septoria lycopersici/Corynespora cassicola (CORYCA) (leaf spot of tomato) in vitro test, radial growth on potato dextrose agar; format: cell-based; settings: 168 h, 300 ppm in potato dextrose agar, 25° C., 70% relative humidity, seven days, read-out: control compared to the untreated check (radial growth)
Rhizoctonia solani = Rhizoctonia solani (rice sheath blight/potato black scurf) in vitro test, radial growth on potato dextrose agar; format: cell-based; settings: 168 h, 300 ppm in potato dextrose agar, 25° C., 60% relative humidity, seven days, read-out: control compared to the untreated check (radial growth)
Botrytis cinerea = Botrytis cinerea (gray mold) in vitro test, radial growth on potato dextrose agar; format: cell-based; settings: 168 h, 300 ppm in potato dextrose agar, 22° C., 90% relative humidity, seven days, read-out: control compared to the untreated check (radial growth)

CCN(C)C=Nc1cc(C)cc(Nc2cccc(C)c2)c1Cl [Compound 36, N′-(2-chloro-5-methyl-3-(m-tolylamino)phenyl)-N-ethyl-N-methylformimidamide]
≥ 70%: inhibition of growth at 300 ppm (Colletotrichum capsici) | inhibition of growth at 300 ppm (Alternaria solani) | pest or weed control at 500 ppm (Phakopsora pachyrhizi) | inhibition of growth at 300 ppm (Pyricularia oryzae) | inhibition of growth at 300 ppm [1]

CCN(C)C=Nc1cc(Cl)cc(Cc2cccc(F)c2)c1C [Compound 102, N′-(5-chloro-3-(3-fluorobenzyl)-2-methylphenyl)-N-ethyl-N-methylformimidamide]
≥ 70%: inhibition of growth at 300 ppm (Colletotrichum capsici) | inhibition of growth at 300 ppm (Alternaria solani) | inhibition of growth at 300 ppm (Rhizoctonia solani) | pest or weed control at 500 ppm (Phakopsora pachyrhizi) | inhibition of growth at 300 ppm (Botrytis cinerea) | inhibition of growth at 300 ppm (Pyricularia oryzae)

CCN(C)C=Nc1cc(Cl)cc(Cc2cccc(Cl)c2)c1C [Compound 101, N′-(5-chloro-3-(3-chlorobenzyl)-2-methylphenyl)-N-ethyl-N-methylformimidamide]
≥ 70%: inhibition of growth at 300 ppm (Colletotrichum capsici) | inhibition of growth at 300 ppm (Alternaria solani) | pest or weed control at 500 ppm (Phakopsora pachyrhizi) | inhibition of growth at 300 ppm (Pyricularia oryzae) | inhibition of growth at 300 ppm [1]

CCN(C)C=Nc1cc(C)cc(Cc2ccc(OC)cc2)c1Cl [Compound 150, N′-(2-chloro-3-(4-methoxybenzyl)-5-methylphenyl)-N-ethyl-N-methylformimidamide]
≥ 70%: inhibition of growth at 300 ppm (Colletotrichum capsici) | inhibition of growth at 300 ppm (Alternaria solani) | inhibition of growth at 300 ppm (Rhizoctonia solani) | pest or weed control at 500 ppm (Phakopsora pachyrhizi) | inhibition of growth at 300 ppm (Botrytis cinerea) | inhibition of growth at 300 ppm (Pyricularia oryzae)

CCc1cccc(Nc2cc(C)cc(N=CN(C)CC)c2Cl)n1 [Compound 226, N′-(2-chloro-3-((6-ethylpyridin-2-yl)amino)-5-methylphenyl)-N-ethyl-N-methylformimidamide]
≥ 70%: inhibition of growth at 300 ppm (Colletotrichum capsici) | inhibition of growth at 300 ppm (Alternaria solani) | inhibition of growth at 300 ppm [1]

CCN(C)C=Nc1cc(Cl)cc(NCc2cccc(Cl)c2)c1C [Compound 183, N′-(5-chloro-3-((3-chlorobenzyl)amino)-2-methylphenyl)-N-ethyl-N-methylformimidamide]
≥ 70%: inhibition of growth at 300 ppm (Colletotrichum capsici) | inhibition of growth at 300 ppm (Alternaria solani) | inhibition of growth at 300 ppm (Rhizoctonia solani) | pest or weed control at 500 ppm (Phakopsora pachyrhizi) | inhibition of growth at 300 ppm (Botrytis cinerea) | inhibition of growth at 300 ppm (Pyricularia oryzae)

CCN(C)C=Nc1cc(Cl)cc(Cc2ccccc2Br)c1C [Compound 90, N′-(3-(2-bromobenzyl)-5-chloro-2-methylphenyl)-N-ethyl-N-methylformimidamide]
≥ 70%: inhibition of growth at 300 ppm (Colletotrichum capsici) | inhibition of growth at 300 ppm (Alternaria solani) | inhibition of growth at 300 ppm (Rhizoctonia solani) | pest or weed control at 500 ppm (Phakopsora pachyrhizi) | inhibition of growth at 300 ppm (Botrytis cinerea) | inhibition of growth at 300 ppm (Pyricularia oryzae)

CCN(C)C=Nc1cc(C)cc(Nc2cc(C)ccc2Cl)c1Cl [Compound 115, N′-(2-chloro-3-((2-chloro-5-methylphenyl)amino)-5-methylphenyl)-N-ethyl-N-methylformimidamide]
≥ 70%: inhibition of growth at 300 ppm (Colletotrichum capsici) | inhibition of growth at 300 ppm (Alternaria solani) | pest or weed control at 500 ppm (Phakopsora pachyrhizi) | inhibition of growth at 300 ppm (Pyricularia oryzae) | inhibition of growth at 300 ppm [1]

CCN(C)C=Nc1cc(F)cc(N(C)c2cc(Cl)ccc2C)c1C [Compound 98, N′-(3-((5-chloro-2-methylphenyl)(methyl)amino)-5-fluoro-2-methylphenyl)-N-ethyl-N-methylformimidamide]
≥ 70%: inhibition of growth at 300 ppm (Colletotrichum capsici) | inhibition of growth at 300 ppm (Alternaria solani) | inhibition of growth at 300 ppm (Rhizoctonia solani) | pest or weed control at 500 ppm (Phakopsora pachyrhizi) | inhibition of growth at 300 ppm (Botrytis cinerea) | inhibition of growth at 300 ppm (Pyricularia oryzae)

CCN(C)C=Nc1cc(C)cc(Cc2ccc(F)c(C)c2)c1Cl [Compound 68, N′-(2-chloro-3-(4-fluoro-3-methylbenzyl)-5-methylphenyl)-N-ethyl-N-methylformimidamide]
≥ 70%: inhibition of growth at 300 ppm (Colletotrichum capsici) | inhibition of growth at 300 ppm (Alternaria solani) | inhibition of growth at 300 ppm (Rhizoctonia solani) | pest or weed control at 500 ppm (Phakopsora pachyrhizi) | inhibition of growth at 300 ppm (Botrytis cinerea) | inhibition of growth at 300 ppm (Pyricularia oryzae)

CCN(C)C=Nc1cc(F)cc(Nc2cc(C)cc(F)c2)c1C [Compound 114, N-ethyl-N′-(5-fluoro-3-((3-fluoro-5-methylphenyl)amino)-2-methylphenyl)-N-methylformimidamide]
≥ 70%: inhibition of growth at 300 ppm (Colletotrichum capsici) | inhibition of growth at 300 ppm (Alternaria solani) | pest or weed control at 500 ppm (Phakopsora pachyrhizi) | inhibition of growth at 300 ppm (Pyricularia oryzae) | inhibition of growth at 300 ppm [1]

CCN(C)C=Nc1cc(C)cc(Cc2ccc(Br)cc2)c1Cl [Compound 93, N′-(3-(4-bromobenzyl)-2-chloro-5-methylphenyl)-N-ethyl-N-methylformimidamide]
≥ 70%: inhibition of growth at 300 ppm (Colletotrichum capsici) | inhibition of growth at 300 ppm (Alternaria solani) | inhibition of growth at 300 ppm (Rhizoctonia solani) | pest or weed control at 500 ppm (Phakopsora pachyrhizi) | inhibition of growth at 300 ppm (Botrytis cinerea) | inhibition of growth at 300 ppm (Pyricularia oryzae)

CCN(C)C=Nc1cc(F)cc(Cc2cc(F)ccc2Br)c1C [Compound 233, N′-(3-(2-bromo-5-fluorobenzyl)-5-fluoro-2-methylphenyl)-N-ethyl-N-methylformimidamide]
≥ 70%: inhibition of growth at 300 ppm (Colletotrichum capsici) | inhibition of growth at 300 ppm (Alternaria solani) | inhibition of growth at 300 ppm (Rhizoctonia solani) | pest or weed control at 500 ppm (Phakopsora pachyrhizi) | inhibition of growth at 300 ppm (Botrytis cinerea) | inhibition of growth at 300 ppm (Pyricularia oryzae)

CCN(C)C=Nc1cc(C)cc(Nc2cccc(Cl)c2)c1Cl [Compound 34, N′-(2-chloro-3-((3-chlorophenyl)amino)-5-methylphenyl)-N-ethyl-N-methylformimidamide]
≥ 70%: inhibition of growth at 300 ppm (Colletotrichum capsici) | inhibition of growth at 300 ppm (Alternaria solani) | inhibition of growth at 300 ppm (Rhizoctonia solani) | pest or weed control at 500 ppm (Phakopsora pachyrhizi) | inhibition of growth at 300 ppm (Botrytis cinerea) | inhibition of growth at 300 ppm (Pyricularia oryzae)

CCN(C)C=Nc1cc(F)cc(N(C)c2cccc(C)c2F)c1C [Compound 152, N-ethyl-N′-(5-fluoro-3-((2-fluoro-3-methylphenyl)(methyl)amino)-2-methylphenyl)-N-methylformimidamide]
≥ 70%: inhibition of growth at 300 ppm (Colletotrichum capsici) | inhibition of growth at 300 ppm (Alternaria solani) | inhibition of growth at 300 ppm (Rhizoctonia solani) | pest or weed control at 500 ppm (Phakopsora pachyrhizi) | inhibition of growth at 300 ppm (Botrytis cinerea) | inhibition of growth at 300 ppm (Pyricularia oryzae)
